Measured values from BindingDB's records for PubMed 11714872 (Astrazeneca R&D, 2001).

Legend:
[1] = biological target: Sodium-dependent serotonin transporter (Rattus norvegicus, UniProt P31652)
[2] = biological target: T1, 5-hydroxytryptamine receptor 1A (Rattus norvegicus, UniProt P19327)
T1 sequence (P19327 whole entry): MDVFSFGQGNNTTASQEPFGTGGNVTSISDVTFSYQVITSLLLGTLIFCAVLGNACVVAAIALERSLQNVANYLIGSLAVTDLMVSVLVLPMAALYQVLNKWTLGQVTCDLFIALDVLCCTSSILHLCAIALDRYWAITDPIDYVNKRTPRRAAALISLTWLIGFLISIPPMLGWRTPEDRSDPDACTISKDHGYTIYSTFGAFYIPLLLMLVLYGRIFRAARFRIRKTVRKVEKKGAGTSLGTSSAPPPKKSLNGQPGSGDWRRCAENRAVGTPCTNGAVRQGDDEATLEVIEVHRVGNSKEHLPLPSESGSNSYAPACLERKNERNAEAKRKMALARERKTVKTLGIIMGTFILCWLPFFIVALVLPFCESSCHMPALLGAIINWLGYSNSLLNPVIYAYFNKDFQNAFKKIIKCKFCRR

[3] = biological target: 5-hydroxytryptamine receptor 7 (Rattus norvegicus, UniProt P32305)
[4] = biological target: 5-hydroxytryptamine receptor 2A (Rattus norvegicus, UniProt P14842)
[5] = biological target: 5-hydroxytryptamine receptor 6 (Rattus norvegicus, UniProt P31388)
[6] = biological target: T2, 5-hydroxytryptamine receptor 2C (Rattus norvegicus, UniProt P08909)
T2 sequence (P08909 whole entry): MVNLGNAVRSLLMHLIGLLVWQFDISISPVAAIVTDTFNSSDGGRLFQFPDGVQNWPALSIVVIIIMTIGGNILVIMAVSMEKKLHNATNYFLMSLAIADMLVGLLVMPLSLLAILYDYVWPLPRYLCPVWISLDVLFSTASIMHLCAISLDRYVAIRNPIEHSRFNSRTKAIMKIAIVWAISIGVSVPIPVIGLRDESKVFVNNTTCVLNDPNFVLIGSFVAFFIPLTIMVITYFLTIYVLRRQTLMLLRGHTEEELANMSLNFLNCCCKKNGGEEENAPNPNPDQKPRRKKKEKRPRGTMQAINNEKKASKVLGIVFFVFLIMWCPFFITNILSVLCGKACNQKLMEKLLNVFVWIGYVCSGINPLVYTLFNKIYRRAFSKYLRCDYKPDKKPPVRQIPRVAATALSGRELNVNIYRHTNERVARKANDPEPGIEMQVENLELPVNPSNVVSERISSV

[7] = biological target: T3, 5-hydroxytryptamine receptor 3A (Rattus norvegicus, UniProt P35563)
T3 sequence (P35563 whole entry): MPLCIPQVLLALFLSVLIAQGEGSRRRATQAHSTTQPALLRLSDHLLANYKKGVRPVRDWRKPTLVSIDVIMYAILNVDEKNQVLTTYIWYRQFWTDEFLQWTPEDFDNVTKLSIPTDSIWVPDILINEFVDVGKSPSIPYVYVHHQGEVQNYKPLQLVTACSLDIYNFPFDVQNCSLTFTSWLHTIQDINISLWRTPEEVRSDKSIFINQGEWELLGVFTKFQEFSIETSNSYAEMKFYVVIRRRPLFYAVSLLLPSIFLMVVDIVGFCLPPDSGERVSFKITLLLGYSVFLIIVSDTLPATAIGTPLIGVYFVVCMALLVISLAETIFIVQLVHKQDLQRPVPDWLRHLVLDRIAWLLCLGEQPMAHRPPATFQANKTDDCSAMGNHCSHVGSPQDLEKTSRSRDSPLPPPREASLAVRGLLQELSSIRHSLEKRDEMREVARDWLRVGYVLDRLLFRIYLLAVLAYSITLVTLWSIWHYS

[8] = biological target: 5-hydroxytryptamine receptor 1B (Bos mutus, UniProt L8IGV0)
5-hydroxytryptamine receptor 1B, sequence (L8IGV0 whole entry): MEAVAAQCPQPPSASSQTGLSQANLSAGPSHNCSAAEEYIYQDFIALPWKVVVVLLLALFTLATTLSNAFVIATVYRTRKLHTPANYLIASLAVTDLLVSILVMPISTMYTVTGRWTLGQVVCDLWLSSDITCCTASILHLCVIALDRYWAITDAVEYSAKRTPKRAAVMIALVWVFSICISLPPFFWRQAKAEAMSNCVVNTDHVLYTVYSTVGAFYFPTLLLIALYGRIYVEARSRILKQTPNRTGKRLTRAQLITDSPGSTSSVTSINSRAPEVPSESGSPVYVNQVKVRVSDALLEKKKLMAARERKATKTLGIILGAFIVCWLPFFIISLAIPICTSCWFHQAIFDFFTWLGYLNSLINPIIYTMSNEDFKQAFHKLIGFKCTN

5-hydroxytryptamine receptor 6, sequence (P31388 whole entry): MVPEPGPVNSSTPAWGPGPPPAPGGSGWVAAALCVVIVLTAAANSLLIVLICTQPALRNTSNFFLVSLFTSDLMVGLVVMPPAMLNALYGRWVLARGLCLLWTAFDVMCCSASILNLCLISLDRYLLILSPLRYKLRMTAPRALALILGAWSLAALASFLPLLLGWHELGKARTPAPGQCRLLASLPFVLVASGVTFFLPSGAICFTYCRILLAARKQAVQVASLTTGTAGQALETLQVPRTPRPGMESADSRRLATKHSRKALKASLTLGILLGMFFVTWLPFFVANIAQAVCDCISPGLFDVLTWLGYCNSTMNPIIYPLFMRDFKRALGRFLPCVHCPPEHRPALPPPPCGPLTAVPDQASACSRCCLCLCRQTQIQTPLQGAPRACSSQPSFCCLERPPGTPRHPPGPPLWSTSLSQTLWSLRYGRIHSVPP
5-hydroxytryptamine receptor 2A, sequence (P14842 whole entry): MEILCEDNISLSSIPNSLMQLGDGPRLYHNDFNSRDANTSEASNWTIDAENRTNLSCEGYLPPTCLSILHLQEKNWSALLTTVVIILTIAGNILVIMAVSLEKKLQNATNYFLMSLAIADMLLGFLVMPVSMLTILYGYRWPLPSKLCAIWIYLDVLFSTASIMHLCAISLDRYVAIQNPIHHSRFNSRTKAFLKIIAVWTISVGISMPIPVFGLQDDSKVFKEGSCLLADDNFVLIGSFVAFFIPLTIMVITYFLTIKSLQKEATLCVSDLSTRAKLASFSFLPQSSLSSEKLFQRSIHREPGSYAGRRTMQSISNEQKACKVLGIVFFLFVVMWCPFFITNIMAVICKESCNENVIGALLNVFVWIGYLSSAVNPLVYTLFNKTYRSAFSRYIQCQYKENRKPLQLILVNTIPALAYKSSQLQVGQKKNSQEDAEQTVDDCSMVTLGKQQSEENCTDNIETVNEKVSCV
5-hydroxytryptamine receptor 7, sequence (P32305 whole entry): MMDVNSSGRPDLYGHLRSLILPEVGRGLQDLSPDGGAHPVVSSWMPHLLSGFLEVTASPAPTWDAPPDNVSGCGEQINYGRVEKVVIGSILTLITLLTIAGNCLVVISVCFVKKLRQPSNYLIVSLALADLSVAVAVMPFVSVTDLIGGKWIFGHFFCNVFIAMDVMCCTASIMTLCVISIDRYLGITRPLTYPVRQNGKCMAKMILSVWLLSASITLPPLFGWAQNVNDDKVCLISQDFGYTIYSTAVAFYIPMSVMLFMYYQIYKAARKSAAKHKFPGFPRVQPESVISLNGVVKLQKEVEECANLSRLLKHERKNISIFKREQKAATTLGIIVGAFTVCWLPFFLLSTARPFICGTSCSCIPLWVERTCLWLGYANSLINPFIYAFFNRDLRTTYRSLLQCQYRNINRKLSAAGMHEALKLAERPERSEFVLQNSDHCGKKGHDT
Sodium-dependent serotonin transporter, sequence (P31652 whole entry): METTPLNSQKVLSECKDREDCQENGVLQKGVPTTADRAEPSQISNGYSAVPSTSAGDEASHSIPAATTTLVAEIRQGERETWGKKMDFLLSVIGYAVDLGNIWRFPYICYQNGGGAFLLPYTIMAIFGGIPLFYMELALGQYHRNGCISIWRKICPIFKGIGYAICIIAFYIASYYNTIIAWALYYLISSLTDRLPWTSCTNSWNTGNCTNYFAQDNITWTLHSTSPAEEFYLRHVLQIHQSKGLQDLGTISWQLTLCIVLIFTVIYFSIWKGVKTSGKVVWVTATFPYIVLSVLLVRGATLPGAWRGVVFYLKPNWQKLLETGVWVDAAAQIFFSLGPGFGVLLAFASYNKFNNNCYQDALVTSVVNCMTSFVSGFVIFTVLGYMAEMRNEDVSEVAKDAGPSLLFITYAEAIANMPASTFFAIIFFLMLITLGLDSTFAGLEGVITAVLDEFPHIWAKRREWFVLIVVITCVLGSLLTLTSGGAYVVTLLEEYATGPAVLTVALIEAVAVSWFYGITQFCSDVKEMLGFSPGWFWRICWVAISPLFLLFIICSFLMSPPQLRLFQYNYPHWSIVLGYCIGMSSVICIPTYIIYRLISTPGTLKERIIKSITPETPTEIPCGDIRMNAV

SMILES	Ki [1]	Ki [2]	Ki [3]	Ki [4]	Ki [5]	Ki [6]	Ki [7]	Ki [8]
CCCN(C(C)C)[C@H]1COc2cccc(C(N)=O)c2C1 [(R)-3-[Isopropyl(propyl)amino]-3,4-dihydro-2H-1-benzopyran-5-carboxamide]	> 10 µM	0.26 nM	88 nM	1000 nM	> 10 µM	500 nM	500 nM	
CCCN(C(C)C)[C@H]1COc2cccc(C(=O)NC(C)C)c2C1 [(R)-N-Isopropyl-3-[isopropyl(propyl)amino]-3,4-dihydro-2H-1-benzopyran-5-carboxamide]		4.5 nM	240 nM	> 10000 nM	> 10 µM	500 nM	500 nM	1400 nM
